Earlier results as cited in patent US20060074100A1, “Histone deacetylase inhibitors for the treatment of ocular neovascular or edematous disorders and diseases” (priority 2002, published 2006).

Experiments:
[1] = system: tumors; settings: animal models
[2] = phase I clinical trials
[3] = system: cancer cell; settings: in vitro
[4] = system: cancer cell
[5] = system: corneal neovascularization; settings: in combination with a beta cyclodextrin

O=C(CCCCCCC(=O)Nc1ccccc1)NO [SAHA, suberoylanilide hydroxamic acid]
tumor size [1]: shrink tumors in animal models | dose-limiting toxicity [2]: almost no dose-limiting toxicity | suppression of white blood cell production [2]: no suppression of white blood cell production | cancer cell growth [3]: arrest cancer cell growth in vitro | induction of cancer cell differentiation [4]: potent inducer of cancer cell differentiation

C[C@@H]1C[C@H]2[C@@H]3C[C@H](F)C4=CC(=O)CC[C@]4(C)C3=CC[C@]2(C)[C@@]1(O)C(=O)CO [U-72,745G]
inhibition of corneal neovascularization [5]: inhibit corneal neovascularization

C[C@]12CCC(=O)C=C1CC[C@@H]1[C@@H]2[C@@H](O)C[C@@]2(C)[C@H]1CC[C@]2(O)C(=O)CO [hydrocortisone]
inhibition of corneal neovascularization [5]: inhibit corneal neovascularization

C[C@]12CC[C@@H](O)C[C@H]1CC[C@@H]1[C@@H]2CC[C@@]2(C)[C@H]1CC[C@]2(O)C(=O)CO [tetrahydrocortisol-S]
inhibition of corneal neovascularization [5]: inhibit corneal neovascularization
